Patent publication US20130143929A1, “FUNGICIDAL IMIDAZOLES” (EI DU PONT DE NEMOURS AND COMPANY, priority 2010, published 2013)
Marks after values point to notes of the source that are not given here.

Experiments:
Assay type in all cases: in vivo
[1] = tested on: Botrytis cinerea (the causal agent of tomato Botrytis); experiment: Test C: tomato Botrytis, preventive spray on tomato seedlings, visual disease rating; details: tomato Botrytis, preventive spray on tomato seedlings
Procedure, shortened: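 Preventive test: B. cinerea spore inoculation one day after tomato seedlings were sprayed to run-off with compound suspended in 50/50 acetone–water plus 250 ppm surfactant. Plants held 48 h at 20° C in saturated air, then 3 days at 24° C; visual ratings scored 100 (full control) to 0 versus controls; some entries used 40 ppm.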

[2] = tested on: Puccinia recondite f. sp. tritici (the causal agent of wheat leaf rust); experiment: Test A: wheat leaf rust, preventive spray on wheat seedlings, visual disease rating; details: wheat leaf rust, preventive spray on wheat seedlings
Procedure, shortened: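 This was a preventive test: Puccinia recondite f. sp. tritici inoculum was applied one day after compound spray to run-off. Test suspensions were made in 50/50 acetone/water with 250 ppm surfactant, at 200 ppm (800 g/ha equivalent) or 40 ppm. Visual ratings of % disease control relative to controls were made after 24 h of saturated humidity and 7 growth-chamber days, all at 20° C.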

[3] = tested on: Septoria tritici (the causal agent of wheat leaf blotch); experiment: Test B: wheat leaf blotch, preventive spray on wheat seedlings, visual disease rating; details: wheat leaf blotch, preventive spray on wheat seedlings
Procedure, shortened: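 Preventive test: Septoria tritici spores applied one day after run-off spraying of seedlings (200 ppm equals 800 g/ha; some tests 40 ppm). After 48 h at 24 °C saturated atmosphere and 19 days at 20 °C, disease scored visually as % control relative to untreated plants.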

[4] = tested on: Blumeria graminis f. sp. tritici (also known as Erysiphe graminis f. sp. tritici, the causal agent of wheat powdery mildew); experiment: Test D: wheat powdery mildew, preventive spray on wheat seedlings, visual disease rating; details: wheat powdery mildew, preventive spray on wheat seedlings
Procedure, shortened: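 Preventive test: seedlings sprayed to run-off and inoculated with powdery mildew spores one day later. Suspensions were made in 50/50 acetone/water with 250 ppm Trem 014 surfactant (200 ppm equals 800 g/ha). Visual ratings after 8 days at 20 °C give percent disease control versus controls.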

[5] = asterisk: 40 ppm test suspension
[6] = no asterisk (standard test suspension concentration, not 40 ppm)

SMILES	Test C rating (100 = 100% disease control, 0 = no disease control relative to the controls) [1, 5]	Test A rating (100 = 100% disease control, 0 = no disease control relative to the controls) [2, 5]	Test B rating (100 = 100% disease control, 0 = no disease control relative to the controls) [3, 5]	Test D rating (100 = 100% disease control, 0 = no disease control relative to the controls) [4, 5]	Test C rating (100 = 100% disease control, 0 = no disease control relative to the controls) [1, 6] [%]	Test A rating (100 = 100% disease control, 0 = no disease control relative to the controls) [2, 6] [%]	Test B rating (100 = 100% disease control, 0 = no disease control relative to the controls) [3, 6] [%]	Test D rating (100 = 100% disease control, 0 = no disease control relative to the controls) [4, 6] [%]
Cc1nc(Cl)c(C(O)c2ccc(Cl)cc2F)n1-c1c(F)cccc1F (stereo not drawn) [compound 54]	80* %	98* %	100* %	69* %				
Cc1ccc(C(O)c2c(Cl)nc(C)n2-c2c(F)cccc2F)c(F)c1 (stereo not drawn) [compound 55]	98* %	100* %	100* %	98* %				
COc1ccc(C(O)c2c(Cl)nc(C)n2-c2c(F)cccc2F)c(F)c1 (stereo not drawn) [compound 56]	100* %	100* %	100* %	13* %				
Cc1ncc(C(O)c2ccc(Cl)cc2)n1-c1ccc(F)cc1Cl (stereo not drawn) [compound 57]					34	96	100	0
Cc1nc(Cl)c(C(O)c2ccc(F)cc2F)n1-c1ccc(F)cc1Cl (stereo not drawn) [compound 58]					100	100	100	72
Cc1nc(Cl)c(C(O)c2ccc(Cl)cc2)n1-c1ccc(F)cc1Cl (stereo not drawn) [compound 59]					99	100	100	73
Cc1nc(Br)c(C(O)c2ccc(Cl)cc2)n1-c1ccc(F)cc1Cl (stereo not drawn) [compound 60]					99	100	100	73
OC(c1ccc(F)cc1F)c1c(Br)ncn1-c1ccc(F)cc1Cl (stereo not drawn) [compound 63]					98	96	59	0
Cc1nc(Cl)c(C(O)c2ccc(F)cc2Cl)n1-c1c(F)cc(F)cc1Cl (stereo not drawn) [compound 64]	99* %	100* %	100* %	93* %				
OC(c1ccc(F)cc1F)c1c(Br)nc(Br)n1-c1ccc(F)cc1Cl (stereo not drawn) [compound 65]	100* %	100* %	100* %	64* %				
Cc1nc(Cl)c(C(O)c2ccc(Cl)cc2Cl)n1-c1c(F)cc(F)cc1Cl (stereo not drawn) [compound 66]	99* %	100* %	100* %	69* %				
Cc1nc(Cl)c(C(O)c2ccc(F)cc2Br)n1-c1c(F)cccc1Br (stereo not drawn) [compound 68]					100	100	100	96
